Data set [1] is described as follows: DIP (propofol) formation by hydrolysis at accelerated stability conditions as a function of pH. It is filed as physicochemical. The conditions noted are these: for DIP formation: 40° C./75% RH. An excerpt: This example illustrates that the degradation of O-phosphonooxymethyl propofol is pH dependent. In particular, higher pH conditions generally result in lower rates of hydrolysis (degradation) of the prodrug, while lower pH conditions increase the rate of hydrolysis. […]

A further data set is described as follows: Water solubility. It is filed as physicochemical. The conditions noted are these: degradation products of the prodrug.
For data set [2] the following is noted: commercially available formulations; cited from earlier work.
The conditions of data set [3]: anesthetic induction doses; cited from earlier work.
The conditions of data set [4]: background statement; cited from earlier work.

Read-outs that look alike come from different tables or passages of the source.

In the case of `CC(C)c1cccc(C(C)C)c1OCOP(=O)(O)O` [O-phosphonooxymethyl propofol, O-phosphonooxymethyl-propofol], the DIP formation in data set [1] (pH 6.9, 1 month) is on record as 1.22 % w/v; in data set [1] (pH 6.9, 3 months), 1.90 % w/v; in data set [1] (pH 6.9, 6 months), 3.47 % w/v; in data set [1] (pH 7.4, 1 month), 0.83 % w/v; in data set [1] (pH 7.4, 3 months) it was 0.67 % w/v; in data set [1] (pH 7.4, 6 months), 2.14 % w/v. Further, the DIP formation stood at 0.32 % w/v in data set [1] (pH 8.0, 1 month); 0.76 % w/v in data set [1] (pH 8.0, 3 months); 0.72 % w/v in data set [1] (pH 8.0, 6 months); 0.15 % w/v in data set [1] (pH 8.5, 1 month); 0.41 % w/v in data set [1] (pH 8.5, 3 months); 0.73 % w/v in data set [1] (pH 8.5, 6 months). Also, the DIP formation is 0.12 % w/v in data set [1] (pH 9.1, 3 months); 0.22 % w/v in data set [1] (pH 9.1, 6 months); 0.09 % w/v in data set [1] (pH 9.9, 6 months). Moreover, in data set [1] (pH of about 9-9.5, 40° C., 75% RH), the Amount of hydrolysis entry is recorded as “least amount of hydrolysis”.
Regarding `Oc1ccc(O)cc1` [hydroquinone], the Water solubility result in the data set “Water solubility” is “poorly water-soluble”.
For the molecule `CC(C)c1cccc(C(C)C)c1O` [propofol], in data set [2], the Oral bioavailability result is “very low”. In data set [3], the “Respiratory consequences, including a reduction in tidal volume and apnea” value is “up to 83 % of patients”. The figures for the Water solubility entry (in “Water solubility”; in data set [4]) were “poorly water-soluble” and “poorly water soluble”, respectively.
Consider quinone, for which the Water solubility entry in the data set “Water solubility” was “poorly water-soluble”.

These data come from patent US20100311698A1, “AQUEOUS BASED PHARMACEUTICAL FORMULATIONS OF WATER-SOLUABLE PRODRUGS OF PROPOFOL” (EISAI C[…] NORTH AMERICA, priority 2006, published 2010).
